In test [1] the test system is HCV genotype 1a (H77 strain) replicon in HUH-7 cells. As to the kind of experiment: HCV replicon luciferase reporter assay, genotype 1a. In kind it is cell-based. The conditions noted are these: Hepatitis C virus, Huh-7, 72 h, HCV genotype 1a replicon luciferase, 3 days incubation, read-out: LE_1a (EC50, range). An outline of the steps:
(§1)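 Replicon inhibition for both genotypes was measured as Renilla luciferase signal (EnduRen, 7.5 μM final, 2 h) after 3-day, 37° C exposure of replicon-bearing HUH-7 cells in 4% FCS DMEM, 0.5% DMSO. The 1b construct carries S1179I; the 1a H77 construct carries P1496L and S2204I. Twenty-point, 3-fold dilutions were fitted four-parametrically for EC50, and CC50 was taken from multiplexed Cell Titer-Blue.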
A general note: In antiviral work, replicon cells carry a viral genome segment that copies itself.

Test [2] has as its system HCV genotype 1b (Con1) replicon in HUH-7 cells. Kind of test: HCV replicon luciferase reporter assay, genotype 1b. The test is classed as cell-based. The conditions noted are these: Hepatitis C virus, Huh-7, 72 h, HCV genotype 1b replicon luciferase, 3 days incubation, read-out: LE_1b (EC50, range). The procedure, abridged: as §1
For the next test, the system named is HCV. The conditions noted are these: combination therapy, HCV infected patients; cited from earlier work.

A word on the EC50: it is the concentration that produces a half-maximal response. In the case of `CC(C)Oc1cc2ccccc2c(O[C@@H]2C[C@H]3C(=O)N[C@]4(C(=O)NS(=O)(=O)C5(C)CC5)C[C@H]4/C=C\CC[C@@H](C)C[C@@H](C)[C@H](NC(=O)OC(C)(C)C(C)(F)F)C(=O)N3C2)n1` [Compound 6106, 3,3-difluoro-2-methylbutan-2-yl((2R,6S,7R,9R,13aS,14aR,16aS,Z)-2-((3-isopropoxyisoquinolin-1-yl)oxy)-7,9-dimethyl-14a-(((1-methylcyclopropyl)sulfonyl)carbamoyl)-5,16-dioxo-1,2,3,5,6,7,8,9,10,11,13a,14,14a,15,16,16a-hexadecahydrocyclopropa[e]pyrrolo[1,2-a][1,4]diazacyclopentadecin-6-yl)carbamate], the EC50 is 1.01 to 5 nM in test [1] and 0.1 to 0.5 nM in test [2].
As to `CCOc1cc2ccccc2c(O[C@@H]2C[C@H]3C(=O)N[C@]4(C(=O)NS(=O)(=O)C5(CF)CC5)C[C@H]4/C=C\CC[C@@H](C)C[C@@H](C)[C@H](NC(=O)OC(C)(C)C)C(=O)N3C2)n1` [Compound 6108, tert-butyl ((2R,6S,7R,9R,13aS,14aR,16aS,Z)-2-((3-ethoxyisoquinolin-1-yl)oxy)-14a-(((1-(fluoromethyl)cyclopropyl)sulfonyl)carbamoyl)-7,9-dimethyl-5,16-dioxo-1,2,3,5,6,7,8,9,10,11,13a,14,14a,15,16,16a-hexadecahydrocyclopropa[e]pyrrolo[1,2-a][1,4]diazacyclopentadecin-6-yl)carbamate], the EC50 in test [1] lay in the range of 0.51 to 1 nM; in test [2], 0.1 to 0.5 nM.
For the compound `CC(C)Oc1cc2ccccc2c(O[C@@H]2C[C@H]3C(=O)N[C@]4(C(=O)NS(=O)(=O)C5(CF)CC5)C[C@H]4/C=C\CC[C@@H](C)C[C@@H](C)[C@H](NC(=O)OC(C)(C)C)C(=O)N3C2)n1` [Compound 6110, tert-butyl ((2R,6S,7R,9R,13aS,14aR,16aS,Z)-14a-(((1-(fluoromethyl)cyclopropyl)sulfonyl)carbamoyl)-2-((3-isopropoxyisoquinolin-1-yl)oxy)-7,9-dimethyl-5,16-dioxo-1,2,3,5,6,7,8,9,10,11,13a,14,14a,15,16,16a-hexadecahydrocyclopropa[e]pyrrolo[1,2-a][1,4]diazacyclopentadecin-6-yl)carbamate], the EC50 in test [1] fell in the range of 1.01 to 5 nM; in test [2] it was 0.51 to 1 nM.
Turning to `CCOc1cc2ccccc2c(O[C@@H]2C[C@H]3C(=O)N[C@]4(C(=O)NS(=O)(=O)C5(CF)CC5)C[C@H]4/C=C\CC[C@@H](C)C[C@@H](C)[C@H](NC(=O)OC(C)(C)C(F)(F)F)C(=O)N3C2)n1` [Compound 6112, 1,1,1-trifluoro-2-methylpropan-2-yl((2R,6S,7R,9R,13aS,14aR,16aS,Z)-2-((3-ethoxyisoquinolin-1-yl)oxy)-14a-(((1-(fluoromethyl)cyclopropyl)sulfonyl)carbamoyl)-7,9-dimethyl-5,16-dioxo-1,2,3,5,6,7,8,9,10,11,13a,14,14a,15,16,16a-hexadecahydrocyclopropa[e]pyrrolo[1,2-a][1,4]diazacyclopentadecin-6-yl)carbamate], the values for the EC50 in test [1] and in test [2] were 1.01 to 5 nM and 0.51 to 1 nM, respectively.
For `CCOc1cc2ccccc2c(O[C@@H]2C[C@H]3C(=O)N[C@]4(C(=O)NS(=O)(=O)C5(CF)CC5)C[C@H]4/C=C\CC[C@@H](C)C[C@@H](C)[C@H](NC(=O)OC(C)(C)C(C)(F)F)C(=O)N3C2)n1` [Compound 6114, 3,3-difluoro-2-methylbutan-2-yl((2R,6S,7R,9R,13aS,14aR,16aS,Z)-2-((3-ethoxyisoquinolin-1-yl)oxy)-14a-(((1-(fluoromethyl)cyclopropyl)sulfonyl)carbamoyl)-7,9-dimethyl-5,16-dioxo-1,2,3,5,6,7,8,9,10,11,13a,14,14a,15,16,16a-hexadecahydrocyclopropa[e]pyrrolo[1,2-a][1,4]diazacyclopentadecin-6-yl)carbamate], in that order: 1.01 to 5 nM and 0.1 to 0.5 nM.
Turning to `CC(C)Oc1cc2ccccc2c(O[C@@H]2C[C@H]3C(=O)N[C@]4(C(=O)NS(=O)(=O)C5(CF)CC5)C[C@H]4/C=C\CC[C@@H](C)C[C@@H](C)[C@H](NC(=O)OC(C)(C)C(F)(F)F)C(=O)N3C2)n1` [Compound 6116, 1,1,1-trifluoro-2-methylpropan-2-yl((2R,6S,7R,9R,13aS,14aR,16aS,Z)-14a-(((1-(fluoromethyl)cyclopropyl)sulfonyl)carbamoyl)-2-((3-isopropoxyisoquinolin-1-yl)oxy)-7,9-dimethyl-5,16-dioxo-1,2,3,5,6,7,8,9,10,11,13a,14,14a,15,16,16a-hexadecahydrocyclopropa[e]pyrrolo[1,2-a][1,4]diazacyclopentadecin-6-yl)carbamate], the EC50 in test [1] and in test [2] was 1.01 to 5 nM throughout.
As to `CC(C)Oc1cc2ccccc2c(O[C@@H]2C[C@H]3C(=O)N[C@]4(C(=O)NS(=O)(=O)C5(CF)CC5)C[C@H]4/C=C\CC[C@@H](C)C[C@@H](C)[C@H](NC(=O)OC(C)(C)C(C)(F)F)C(=O)N3C2)n1` [Compound 6118, 3,3-difluoro-2-methylbutan-2-yl((2R,6S,7R,9R,13aS,14aR,16aS,Z)-14a-(((1-(fluoromethyl)cyclopropyl)sulfonyl)carbamoyl)-2-((3-isopropoxyisoquinolin-1-yl)oxy)-7,9-dimethyl-5,16-dioxo-1,2,3,5,6,7,8,9,10,11,13a,14,14a,15,16,16a-hexadecahydrocyclopropa[e]pyrrolo[1,2-a][1,4]diazacyclopentadecin-6-yl)carbamate], the EC50 in test [1] and in test [2] was 1.01 to 5 nM in each case.
With alpha-interferon and ribavirin, the sustained efficacy with HCV is 40 % of patients.

The values are drawn from patent US9499550B2 (BRISTOL-MYERS SQUIBB COMPANY, priority 2012, dated 2016).
